Values joined by “and” are separate entries in the source; they are usually repeats but may differ in a detail not shown here. Identical values can stand only once.
Experiments:
[1] = tested on: ES-D3 cells (differentiation into contracting cardiomyocytes); assay: ES-D3 cell differentiation assay of the mouse embryonic stem cell test (mEST); format: cell-based
Description: The developmental toxicity of the test compounds was assessed by the inhibitory effect on the differentiation of cells of the ES-D3 cell line into contracting cardiomyocytes. The assay was performed essentially as previously described (Kamelia et al. [2020]). The cells were cultured on the lid of a 96-well plate in 45 hanging drops (volume 20 µL/drop) at a concentration of 37,500 cells/ml. The 96 wells were filled with 250 µL PBS to maintain the humidity. Sterile Eppendorf lids were placed at the corners of the 96-well plate to prevent the hanging drops from contacting the 96-well plate. The plates were sealed with micropore tape and incubated at 37 °C with 5% CO2 in a humidified atmosphere for 72 h. After 72 h, 5 ml exposure medium was prepared for each concentration of each test compound with 0.25% DMSO in a 60 × 15 mm petri dish. The formed embryonic bodies (EBs) in the hanging drops on the lid of the 96-well plate were washed off with exposure medium and collected in the petri dish. The Petri dish was subsequently incubated at 37 °C with 5% CO2 in a humidified atmosphere for 48 h. After 48 h, the EBs were transferred to a 24-well plate filled with 1 ml exposure medium per well. Each well contained 1 EB. The 24-well plates were incubated at 37 °C with 5% CO2 in a humidified atmosphere for 120 h. The number of EBs with contracting cardiomyocytes and the undifferentiated EBs were counted under a microscope. In the solvent (DMSO) control, the presence of more than 21 EBs with contracting cardiomyocytes out of 24 EBs indicates a valid assay. In each experiment, 0.5 µM (0.065 µg/ml) 5-FU was used as a positive control. The result of the differentiation assay is expressed as the fraction of differentiated EBs of the total number of EBs.
The concentration–response data for the test compounds in the mEST were presented in three curves including curves for 1-day cytotoxicity, 5-day cytotoxicity, and 10-day differentiation assays. The obtained curves were fitted using the inhibition equation log (inhibitor) vs response (three parameters) option using GraphPad Prism software 5.0 (California, USA).

rat liver S9 = assay: Glucuronidation of 3-OH-8-MBaP in incubations with rat liver S9; format: in vitro ADME
Description: (§1) The conjugation of 3-OH-8-MBaP with glucuronic acid was studied in incubations with rat liver S9 in vitro. The incubation time and S9 protein concentration were optimized to ascertain linearity of glucuronidation with time and the amount of S9 protein. The incubation was performed with a 200 µL mixture in glass vials, and consisted of (final concentrations) […] Tris buffer (pH 7.4), 0.1 mg/ml pooled rat liver S9, 3 mM UDPGA, 5 mM MgCl2, 0.025 mg/ml alamethicin, and 0–100 µM 3-OH-8-MBaP. No metabolites were formed in control incubations without either rat liver S9 or co-factor UDPGA. The final concentration of substrate vehicle (DMSO) in the incubation mixture was 1% (v/v). The incubation mixtures without substrate were pre-incubated at 37 °C for 1 min. The reaction was initiated by adding substrate to the incubation mixtures that were subsequently incubated at 37 °C for 20 min, after which the reaction was terminated by adding 100 µL ice-cold acetonitrile. The incubation mixture was subsequently centrifuged at 3717g at 4 °C for 5 min. The supernatant was collected for ultra-performance liquid chromatography (UPLC) analysis.
(§2) An Acquity UPLC system with a photodiode array (PDA) detector was used to quantify the metabolites formed in the glucuronidation and sulfation incubations. The supernatants of the incubation samples were injected onto an Acquity UPLC BEH® C18 column ([…], 1.7 µm, Waters, Milford, MA). The total running time per sample was 22 min with a flow rate of 0.6 ml/min. The temperature of column and auto sampler was 40 °C and 10 °C, respectively. The injection volume was 3.5 µL and the detection wavelength ranged from 190 to 400 nm. Two eluents were used including A (nanopure with 0.1% (v/v) TFA) and B (acetonitrile with 0.1% (v/v) TFA). The gradient elution started from 90% A and 10% B applied from 0.0 min to 0.5 min, which was changed to 10% A and 90% B from 0.5 to 15.5 min and then kept at 10% A and 90% B from 15.5 min to 18.5 min, and changed back to 90% A and 10% B from 18.5 to 22.0 min. Metabolites were quantified as previously described in our study on microsomal metabolism of BaP and several of its methyl substituted analogs (Wang et al [2022]).
(§3) The concentration of the glucuronidated and sulfated metabolites was further used to calculate the velocity of the enzymatic reaction expressed in nmol/min/mg S9 protein. The curve reflecting the substrate (3-OH-8-MBaP) concentration-dependent velocity of the metabolite formation was fitted by the Michaelis–Menten equation using GraphPad Prism 5 (California, USA). The kinetic constants derived included the Km (µM) and Vmax (nmol/min/mg S9 protein).
(§4) 3-OH-8-MBaP was subsequently modeled to be conjugated by glucuronidation and sulfation in the liver. The kinetic constants for these conjugation reactions were determined in incubation experiments described in Sect. […] The scaling factors from rat liver microsomes and rat liver S9 to the whole liver were 45 mg microsomal protein/g liver and 125 mg S9 protein/g liver, respectively (Houston and Galetin [2008]).

[2] = as above; format: in vitro ADME; details: rat, pooled rat liver S9, pH 7.4, rat liver S9, UDPGA
Description: as §1, §2, §3, §4

Cc1ccc2c(c1)cc1ccc3c(O)ccc4ccc2c1c43 [3-OH-8-MBaP, 3-Hydroxy-8-methyl-benzo[a]pyrene]
IC50 ([1]; Mus musculus, Cardiomyocyte, 240 h, read-out: IC50 for inhibition of differentiation of ES-D3 cells into beating cardiomyocytes): 1400 nM
Fold difference between IC50 of 3-OH-8-MBaP and of 3-OHBaP (3-OH-8-MBaP lower) ([1]; differentiation assay of the mEST): 1.1 fold
Km (rat liver S9; rat liver S9, UDPGA): 15.6 µM
Vmax, glucuronidation of 3-OH-8-MBaP (rat liver S9; rat liver S9, UDPGA): 6.92 nmol/min/mg S9 protein and 6.92^e nmol/min/mg S9 protein
Scaled Vmax, glucuronidation of 3-OH-8-MBaP (rat liver S9; scaled to whole liver, liver weight 9.1 g): 470 µmol/h/liver
Scaled Vmax, glucuronidation of 3-OH-8-MBaP (rat liver S9; scaled with 125 mg S9 protein/g liver): 51.9 µmol/h/g liver
Km at 20 min [2]: 16 µM

Reference: publication PMC12454603 (Archives of Toxicology, 2025)
